“Also recorded” adds a separate entry of the source. Where two headings read alike, the source gives them in different places.
What was measured:
[1] = molecular target: cloned rat D2L receptors (Rattus norvegicus (Rat), UniProt P61169); test: [3H]spiroperidol competition binding, rat D2L receptors in HEK-293 cells; details: values of Table 3; for Ki: rat D2 in HEK-293 cells; for D2/D3: ratio of Ki values
Description: (§1) All these procedures were described by us previously.

[2] = molecular target: α-syn (Homo sapiens (Human), UniProt P37840); test: Thioflavin T assay of α-syn aggregation seeded with 0.5% PFFs; type: biochemical; details: 172.9 μM compound, 30D, 37° C., no agitation
Protocol: The α-syn assay was carried out by following the procedures developed by us earlier. The compounds (−)-91b (D636) and (−)-95a (D653) were incubated with α-syn seeded with 0.5% PFFs for a period of 30D at 37° C. without agitation. […] Both (−)-91b and (−)-95a lead to a significant decrease in the ThT fluorescence (p<0.0001) when compared to α-syn seeded with 0.5% PFFs alone at 30D (FIG. 5A).
The experimental conditions were followed as described in our earlier publication. Briefly, α-syn fibrils were formed by incubating purified α-syn at a concentration of 5 mg/mL at 37° C. under constant agitation at 1000 rpm in a Thermomix R shaker (Eppendorf, Hamburg, Germany) for a period of 5 days. These fibrils at a concentration of 0.5% were used to seed the aggregation of α-syn at 1.25 mg/ml (86.45 μM) with or without compounds D636 or D653 at a concentration of 172.9 μM without agitation at 37° C. for a period of 30 days. Samples were collected at 0D and 30D. Thioflavin T (ThT) assay was performed using these samples as described previously to evaluate the extent of aggregation.

[3] = tested on: PC12 cells; test: MTT cell viability, compounds alone; type: cell-based, rat
Protocol: To investigate the neuroprotection property of the selected target molecules (−)-91b, (−)-95a and (−)-95c against 6-OHDA-induced cytotoxicity, we used dopaminergic rat adrenal Pheochromocytoma PC12 cells. As reported above, treatment of PC12 cells with 6-OHDA at 75 μM for 24 h produced ˜50% loss in cells viability and this concentration was used in subsequent experiments. […] However, (−)-95a produced some incremental toxicity starting at 20 μM dose (FIG. 4B). The potential neuroprotective effects of (−)-91b, (−)-95a and (−)-95c against 6-OHDA-induced toxicity were evaluated next. […] At those concentration both drugs increased cell survival by ˜20% compared to 6-OHDA (75 μM) treated alone (FIGS. 4D and 4F), indicating neuroprotective effect of these drugs. […] This could be due to the fact that the compound by itself produced toxicity to the cells at doses ≥20 μM and the presence of 6-OHDA enhanced the toxicity (FIG. 4B).
PC12 cells (ATCC CRL1721.1, Manassas, Va., USA), a rat adrenal pheochromocytoma cell line, were cultured in T-75 flasks (Greiner Bio One, Frickenhausen, Germany) and maintained in RPMI 1640 medium supplemented with 10% heat inactivated horse serum, 5% fetal bovine serum, 100 U/ml penicillin, and 100 μg/mL streptomycin at 37° C. in 95% air/5% CO2. Stock solutions of (−)-91b, (−)-95a, (−)-95c, and 6-hydroxydopamine (6-OHDA) were prepared in dimethylsulfoxide (DMSO) and aliquots were stored at −20° C. and −80° C., respectively. […]
PC12 cells were plated at 17000 cells/well density in 100 μL of media in 96-well plates and incubated at 37° C. under 5% CO2 atmosphere for 24 h. […] The absorbance was measured on a microplate reader (Biotek Epoch, Winooski, Vt., USA) at 570 nm with background correction performed at 690 nm. Data from at least three experiments were analyzed using GraphPad software (version 6, San Diego, Calif., USA). Cell viability was defined as […] compared to untreated controls.

[4] = molecular target: cloned rat D3 receptors (Rattus norvegicus (Rat), UniProt P19020); test: [3H]spiroperidol competition binding, rat D3 receptors in HEK-293 cells; details: rat D3 in HEK-293 cells; values of Table 3
cloned rat D3 receptors, sequence (P19020 whole entry): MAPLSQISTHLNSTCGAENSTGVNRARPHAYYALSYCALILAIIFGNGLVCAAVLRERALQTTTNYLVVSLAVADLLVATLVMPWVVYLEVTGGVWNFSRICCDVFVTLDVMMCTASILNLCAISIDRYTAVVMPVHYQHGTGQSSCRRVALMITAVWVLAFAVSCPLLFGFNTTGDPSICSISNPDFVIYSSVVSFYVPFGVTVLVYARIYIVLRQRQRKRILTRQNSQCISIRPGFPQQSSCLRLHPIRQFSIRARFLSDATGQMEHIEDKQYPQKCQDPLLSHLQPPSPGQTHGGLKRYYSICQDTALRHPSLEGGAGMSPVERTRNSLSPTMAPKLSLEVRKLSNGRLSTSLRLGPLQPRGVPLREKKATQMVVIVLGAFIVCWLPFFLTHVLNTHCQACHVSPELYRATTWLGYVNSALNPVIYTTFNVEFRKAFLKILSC
Protocol: A well established radioligand competition assay was carried out to evaluate binding affinity of the test compounds and were compared with that of the reference agent (S)-5-OH-DPAT (Table 3). Binding affinity to rat DA D2 and D3 receptors expressed in HEK-293 cells was determined as described by us previously. […] This indicated highest tolerance of the 4-substituted carbazole derivative for interaction with the D2 and D3 receptors.
as §1

[5] = tested on: PC12 cells; test: MTT viability of PC12 cells treated with seeded α-syn aggregates; type: cell-based, rat; details: 30D samples, 24 h treatment, compared to control (seeded α-syn alone 37%)
Protocol: When PC12 cells were treated with the aggregates formed by 0.5% PFFs seeding at 30D, it was observed that the viability went down to 37% when compared to control. […] The viability values of PC12 cells when treated with α-syn seeded samples in the presence of (−)-91b and (−)-95a were 71% and 72% at 30D when compared to control (FIG. 5B).
Further, the cytotoxicity of the aggregates formed was evaluated in PC12 cells. Briefly, PC12 cells were treated with α-syn aggregates such that its concentration is 10 μM. 24 h following treatments, viability was measured by MTT assay as described previously.

[6] = tested on: reserpine-induced hypolocomotion in rats; test: Reversal of reserpine-induced hypolocomotion in rats; details: 10 μMol/kg, ip; for duration of locomotor activation: locomotion monitored for 6 h; for reversal of reserpine-induced akinesia / hypolocomotion (horizontal activity): reserpine 5 mg/kg sc, 18 h pretreatment, rats
Protocol: In this model depletion of catecholamines by reserpine results in catalepsy in rats.
The following commercially available drug was used in the experiment: reserpine hydrochloride (Alfa Aesar). […] The compounds for this study were administered in a volume of 0.1-0.2 mL for subcutaneous administration and 0.5-0.7 ml for interaperitoneal administration into each rat.
In rodent studies, animals were male and female Sprague-Dawley rats from Harlan (Indianapolis, Ind.) weighing 220-225 g unless otherwise specified. Animals were maintained in sawdust-lined cages in a temperature and humidity controlled environment at 22±1° C. and 60±5% humidity, respectively. A 12 h light/dark cycle was maintained, with lights on from 6:00 a.m. to 6:00 p.m. They were group-housed with unrestricted access to food and water. All experiments were performed during the light component.
Reserpine (5.0 mg/kg, sc) was administered 18 h before the injection of drug or vehicle. The rats were placed individually in the chambers for 1 h for acclimatization before administration of the test drugs or vehicle. Immediately after administration of drug or vehicle, animals were individually placed in Opto-Varimex 4 animal activity monitor chamber (Columbus Instruments, Ohio, USA) to start measuring locomotor activity. Locomotion was monitored for 6 h. […] The data were presented as horizontal activity (HACTV). […] The data were analyzed by one-way analysis of variance (ANOVA) followed by Dunnett's post hoc test.

[7] = molecular target: human DA D2 receptors (Homo sapiens (Human), UniProt P14416); test: [35S]GTPγS binding stimulation, human D2 receptors in CHO cells; type: biochemical; details: for Emax: compared with maximum stimulation by full agonist DA
human DA D2 receptors, sequence (P14416 whole entry): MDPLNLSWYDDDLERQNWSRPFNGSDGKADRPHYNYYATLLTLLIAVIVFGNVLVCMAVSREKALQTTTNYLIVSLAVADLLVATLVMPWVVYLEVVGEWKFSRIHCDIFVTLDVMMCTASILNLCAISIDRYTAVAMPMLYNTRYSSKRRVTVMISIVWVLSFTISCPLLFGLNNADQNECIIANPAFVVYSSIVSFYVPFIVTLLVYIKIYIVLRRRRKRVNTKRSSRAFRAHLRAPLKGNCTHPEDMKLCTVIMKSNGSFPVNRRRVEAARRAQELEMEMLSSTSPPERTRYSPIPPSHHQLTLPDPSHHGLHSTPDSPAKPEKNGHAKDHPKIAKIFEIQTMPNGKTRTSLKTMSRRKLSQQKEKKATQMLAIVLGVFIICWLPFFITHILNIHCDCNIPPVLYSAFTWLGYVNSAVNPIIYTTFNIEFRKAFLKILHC

cloned rat D2L receptors, sequence (P61169 whole entry): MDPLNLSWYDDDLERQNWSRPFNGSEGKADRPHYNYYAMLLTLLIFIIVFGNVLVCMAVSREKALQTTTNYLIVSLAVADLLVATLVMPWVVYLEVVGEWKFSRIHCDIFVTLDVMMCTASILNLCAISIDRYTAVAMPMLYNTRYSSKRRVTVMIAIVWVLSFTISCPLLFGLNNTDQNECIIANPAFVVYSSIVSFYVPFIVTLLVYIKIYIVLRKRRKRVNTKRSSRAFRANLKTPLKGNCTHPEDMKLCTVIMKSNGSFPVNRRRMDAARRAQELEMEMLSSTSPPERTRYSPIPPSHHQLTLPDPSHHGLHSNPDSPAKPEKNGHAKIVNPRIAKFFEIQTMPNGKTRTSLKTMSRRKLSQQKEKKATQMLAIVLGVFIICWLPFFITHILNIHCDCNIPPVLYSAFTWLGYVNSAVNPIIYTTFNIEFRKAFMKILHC

EC50 ([7]; CHO cells, read-out: EC50 (GTPγS), D2) [nM] | Compound | Ki [1] [nM] | D2/D3 [1] | decrease in ThT fluorescence compared to seeded α-syn [2] [fold] | dose at which compound alone produced toxicity ([3]; compound alone) [µM] | Ki [4] [nM] | viability of PC12 cells treated with α-syn seeded samples formed with compound [5] [%] | duration of locomotor activation [6] | reversal of reserpine-induced akinesia / hypolocomotion (horizontal activity) [6] | EC50 [7] [nM] | Emax [7] [%] | cell viability, compound alone ([3]; 0.01-30 μM, compared to untreated controls)
– | CCCN(CCN1CCN(c2ccc3c(c2)[nH]c2ccccc23)CC1)[C@H]1CCc2c(O)cccc2C1 [Compound (−)-95a, (S)-6-((2-(4-(9H-carbazol-2-yl)piperazin-1-yl)ethyl)(propyl)amino)-5,6,7,8-tetrahydronaphthalen-1-ol] | 71.2 | 177 | 3 | ≥ 20 | 0.4 | 72 | significant enhancement of locomotion for the duration of the study of 6 h | significantly reversed akinesia; also recorded: highest in vivo activity; also recorded: significantly different | 0.87 | 85 to 92 | –
48.7 | CCCN(CCN1CCN(c2ccc3[nH]c4ccccc4c3c2)CC1)[C@H]1CCc2nc(N)sc2C1 [(−)-91b, (S)—N^6-(2-(4-(9H-carbazol-3-yl)piperazin-1-yl)ethyl)-N^6-propyl-4,5,6,7-tetrahydrobenzo[d]thiazole-2,6-diamine] | 135 | 35 | 16 | – | 3.8 | 71 | significant enhancement of locomotion for the duration of the study of 6 h | significantly reversed akinesia; also recorded: significantly different | – | 87 to 93 | no cells loss
